pIC50: −log10 of the molar value.
Tests used:
[1] = tested on: Tloop (representing duplex DNA); experiment: FRET assay, Tloop duplex DNA; format: binding; conditions: compound at 1 μM, 60 mM potassium cacodylate buffer pH 7.4
From the text: (§1) The ability of the naphthalene diimide compounds to stabilize quadruplex DNA sequences was investigated using a fluorescence resonance energy transfer (FRET) assay modified to be used as a high-throughput screen in a 96-well format. Several quadruplex sequences were studied (including the human telomeric G-quadruplex DNA sequence 5′-FAM-d(GGG[TTAGGG]3)-TAMRA-3′ and the duplex sequence 5′-FAM-d[…]-HEG-[…]-TAMRA-3′ (HEG linker: [(—CH2—CH2—O—)6.
(§2) The labelled oligonucleotides have attached to them the donor fluorophore FAM: 6-carboxyfluorescein and the acceptor fluorophore TAMRA: 6-carboxytetramethylrhodamine. The FRET probe sequences were diluted from stock to the correct concentration (400 nM) in a 60 mM potassium cacodylate buffer (pH 7.4) and then annealed by heating to 85° C. for 10 min, followed by cooling to room temperature in the heating block. The compound was stored as a 10 mM stock solution in DMSO; final solutions (at 2× concentration) were prepared using 10 mM HCl in the initial 1:10 dilution, after which 60 mM potassium cacodylate buffer (pH 7.4) was used in all subsequent steps. The maximum HCl concentration in the reaction volume (at a ligand concentration of 20 μM) is thus 200 μM, well within the range of the buffer used. Relevant controls were also performed to check for interference with the assay. 96-Well plates (MJ Research, Waltham, Mass.) were prepared by aliquoting 50 μl of the annealed DNA into each well, followed by 50 μl of the compound solutions. Measurements were made on a DNA Engine Opticon (MJ Research) with excitation at 450-495 nm and detection at 515-545 nm. Fluorescence readings were taken at intervals of 0.5° C. in the range 30-100° C., with a constant temperature being maintained for 30 s prior to each reading to ensure a stable value. Final analysis of the data was carried out using a script written in the program Origin 7.0 (OriginLab Corp., Northampton, Mass.). The advanced curve-fitting function in Origin 7.0 was used for calculation of ΔTm values. All determinations were performed in triplicate or better. Esds in ΔTm are ±0.1° C.

[2] = tested on: Kras32 sequence from the promoter region of the kras gene; experiment: FRET quadruplex stabilisation assay, Kras32; format: binding; conditions: compound at 1 μM, 60 mM potassium cacodylate buffer pH 7.4
From the text: as §1, §2

[3] = tested on: Mia-PaCa2 (pancreatic cancer) cells; experiment: SRB growth inhibition, MiaPaCa2; format: cell-based, human; conditions: 96 hr, SRB assay; read-out: short-term 96 hr IC50 MiaPaCa2
Experimental: (§3) Human cancer cell lines and the somatic human cell line WI-38 (lung fibroblast) were purchased from the American Type Culture Collection. Cell lines were maintained in appropriate medium supplemented with 10% foetal bovine serum (Invitrogen, UK), 2 mM L-glutamine (Invitrogen, Netherlands), and other components as specified by the suppliers. Cell lines were maintained at 37° C., 5% CO2 and routinely passaged. Drugs were dissolved in DMSO and filtered through 0.22 μm pore-size filter units before addition to cell line appropriate media. Cellular growth inhibition was measured using the sulforhodamine B (SRB) assay in 96 well plates. Fifty percent inhibitory concentrations (IC50) were determined by taking the mean absorbance at 540 nm for each drug concentration expressed as a percentage of the absorbance of untreated control wells.

[4] = tested on: WI38 (lung fibroblast) cells; experiment: SRB growth inhibition, WI38; format: cell-based, human; conditions: 96 hr, SRB assay; read-out: short-term 96 hr IC50 WI38
Experimental: as §3

[5] = tested on: ALT (Alternative Lengthening of Telomeres) cell line; experiment: SRB growth inhibition, ALT; format: cell-based, human; conditions: 96 hr, SRB assay; read-out: short-term 96 hr IC50 ALT
Experimental: as §3

[6] = tested on: Kras21 sequence from the promoter region of the kras gene; experiment: FRET quadruplex stabilisation assay, Kras21; format: binding; conditions: compound at 1 μM, 60 mM potassium cacodylate buffer pH 7.4
From the text: as §1, §2

[7] = tested on: Hsp90A sequence from the HSP90 promoter; experiment: FRET quadruplex stabilisation assay, Hsp90A; format: binding; conditions: compound at 1 μM, 60 mM potassium cacodylate buffer pH 7.4
From the text: as §1, §2

[8] = tested on: Panc1 (pancreatic cancer) cells; experiment: SRB growth inhibition, Panc1; format: cell-based, human; conditions: 96 hr, SRB assay; read-out: short-term 96 hr IC50 Panc1
Experimental: as §3

[9] = tested on: Bcl-2 sequence from the promoter region of the bcl-2 gene; experiment: FRET quadruplex stabilisation assay, Bcl-2; format: binding; conditions: compound at 1 μM, 60 mM potassium cacodylate buffer pH 7.4
From the text: as §1, §2

[10] = tested on: Hsp90B sequence from the HSP90 promoter; experiment: FRET quadruplex stabilisation assay, Hsp90B; format: binding; conditions: compound at 1 μM, 60 mM potassium cacodylate buffer pH 7.4
From the text: as §1, §2

A549 (lung cancer) cells = experiment: SRB growth inhibition, A549; format: cell-based, human; conditions: 96 hr, SRB assay; read-out: short-term 96 hr IC50 A549
Experimental: as §3

[11] = tested on: human telomeric (F21T) G-quadruplex DNA; experiment: FRET quadruplex stabilisation assay, F21T; format: binding; conditions: compound at 1 μM, 60 mM potassium cacodylate buffer pH 7.4
From the text: as §1, §2

MCF7 (breast) cells = experiment: SRB growth inhibition, MCF7; format: cell-based, human; conditions: 96 hr, SRB assay; read-out: short-term 96 hr IC50 MCF7
Experimental: as §3

Row | Compound | ΔTm Tloop [1] [°C] | ΔTm Kras32 [2] [°C] | pIC50 [3] | pIC50 [4] | pIC50 [5] | ΔTm Kras21 [6] [°C] | ΔTm Hsp90A [7] [°C] | pIC50 [8] | ΔTm Bcl-2 [9] [°C] | ΔTm Hsp90B [10] [°C] | pIC50 (A549 (lung cancer) cells) | ΔTm F21T [11] [°C] | pIC50 (MCF7 (breast) cells)
1 | O=C1c2ccc3c4c(c(NCC5CCCO5)cc(c24)C(=O)N1CCCN1CCOCC1)C(=O)N(CCCN1CCOCC1)C3=O (centres unmarked) [Compound 4h, 4-((tetrahydrofurylmethyl)amino)-2,7-bis(3-morpholinopropyl) benzo[Imn][3,8]phenanthroline-1,3,6,8(2H,7H)-tetraone] | 0 | 1.2 | 6.86 | 5.73 | 6.15 | 3.4 | 3.9 | 6.09 | 4.2 | 6.8 | 6.84 | 1.4 | 5.99
2 | CN1CCN(CCCNc2cc3c4c(ccc5c4c2C(=O)N(CCCN2CCOCC2)C5=O)C(=O)N(CCCN2CCOCC2)C3=O)CC1 [Compound 4a, 4-((3-(4-methylpiperazin-1-yl)propyl)amino)-2,7-bis(3-morpholinopropyl)benzo[Imn][3,8]phenanthroline-1,3,6,8(2H,7H)-tetraone] | 0.8 | 6.1 | 7.23 | 5.74 | 6.65 | 9.8 | 19.8 | 7.35 | 15.8 | 16.5 | 7.17 | 14.3 | 6.45
3 | CN1CCN(CCNc2cc3c4c(ccc5c4c2C(=O)N(CCCN2CCOCC2)C5=O)C(=O)N(CCCN2CCOCC2)C3=O)CC1 [Compound 4b, 4-((2-(4-methylpiperazin-1-yl)ethyl)amino)-2,7-bis(3-morpholinopropyl)benzo[Imn][3,8]phenanthroline-1,3,6,8(2H,7H)-tetraone] | 0.4 | 6.1 | 7.32 | 5.83 | 7.07 | 11.0 | 18.1 | 7.34 | 15.1 | 15.0 | 7.07 | 12.3 | 6.50
4 | CN1CCN(CCCNc2cc3c4c(c(NCCCN5CCN(C)CC5)cc5c4c2C(=O)N(CCCN2CCOCC2)C5=O)C(=O)N(CCCN2CCOCC2)C3=O)CC1 [MM41, 4,9-bis((3-(4-methylpiperazine-1-yl)-propyl)amino)-2,7-bis(3-morpholinopropyl)benzo[Imn][3,8]phenanthroline-1,3,6,8(2H,7H)-tetraone, reference compound] | 4.9 | 19.8 | 7.96 | 6.64 | 7.20 | 22.5 | 33.1 | 8.52 | 26.4 | 28.6 | 7.72 | 26.6 | 7.15
5 | O=C1c2ccc3c4c(c(NCCN5CCOCC5)cc(c24)C(=O)N1CCCN1CCOCC1)C(=O)N(CCCN1CCOCC1)C3=O [Compound 4g, 4-((2-morpholinoethyl)amino)-2,7-bis(3-morpholinopropyl)benzo[Imn][3,8]phenanthroline-1,3,6,8(2H,7H)-tetraone] | 1.5 | 1.5 | 6.69 | 4.75 | 4.96 | 2.4 | 11.0 | 6.66 | 5.8 | 9.4 | 5.66 | 6.0 | < 4.60
6 | O=C1c2ccc3c4c(c(NCCc5ccccn5)cc(c24)C(=O)N1CCCN1CCOCC1)C(=O)N(CCCN1CCOCC1)C3=O [Compound 4d, 2,7-bis(3-morpholinopropyl)-4-((2-(pyridin-2-yl)ethyl)amino)benzo[Imn][3,8]phenanthroline-1,3,6,8(2H,7H)-tetraone] | 0 | 1.5 | 6.66 | 5.65 | 5.89 | 3.0 | 2.5 | 6.47 | 2.8 | <2 | 6.89 | <2 | 5.97
7 | O=C1c2ccc3c4c(c(NCCN5CCCCC5)cc(c24)C(=O)N1CCCN1CCOCC1)C(=O)N(CCCN1CCOCC1)C3=O [Compound 4f, 2,7-bis(3-morpholinopropyl)-4-((2-(piperidin-1-yl)ethyl)amino)benzo[Imn][3,8]phenanthroline-1,3,6,8(2H,7H)-tetraone] | 0.6 | 2.2 | 6.97 | 5.27 | 6.27 | 4.8 | 9.1 | 7.08 | 5.9 | 8.7 | 6.70 | 9.8 | 5.95
8 | O=C1c2ccc3c4c(c(NCCc5ccc(O)cc5)cc(c24)C(=O)N1CCCN1CCOCC1)C(=O)N(CCCN1CCOCC1)C3=O [Compound 4j, 4-((4-hydroxyphenethyl)amino)-2,7-bis(3-morpholinopropyl)benzo[Imn][3,8]phenanthroline-1,3,6,8(2H,7H)-tetraone] | 0.1 | 3.0 | 7.23 | 5.78 | 6.35 | 6.1 | 15.7 | 6.79 | 10.0 | 13.8 | 7.04 | 9 | 5.81

Source: patent US20190330197A1, “SUBSTITUTED NAPHTHALENE DIIMIDES AND THEIR USE” (UCL Business PLC, priority 2015, published 2019)
